From paper PMC4872784 (Oncotarget, 2016)
Read-outs that look alike come from different tables or passages of the source.

What was measured:
Kasumi-2 cells = test: alamarBlue cytotoxicity assay, 48h; format: cell-based, human; details: Kasumi-2 (B-ALL), RPMI + 10% FBS
Experimental: (§1) Following subtraction of background fluorescence from all wells, fluorescence of drug-treated cells was normalized to that of vehicle (<0.5% DMSO)-treated cells to determine the effect of each drug concentration on viability. Each cell line was tested in triplicate and in at least three independent experiments. IC50 (concentration that inhibits cell growth by 50%) values were calculated using CompuSyn software (ComboSyn, Paramus, NJ). […] In addition several cell lines were initially cultured and tested in alternative media (Supplementary Table S2). […] Colony counts were normalized to vehicle-treated controls (100%). Three independent experiments were performed.
(§2) In most experiments, cytotoxicity was assessed using alamarBlue assays (Life Technologies, Grand Island, NY). In experiments using NAC and DFO, which can interfere with alamarBlue assay performance, Trypan Blue dye exclusion was used instead. […]
(§3) experiments performed in triplicate. […] Age refers to age […]
(§4) at the time of leukemia diagnosis of the patient from whom the cell line was derived. (–) Indicates information unavailable.
(§5) *Cell lines with FLT3/ITD mutations.
(§6) *The MV-4–11 cell line was derived from a patient with a biphenotypic B-myelomonocytic leukemia; K562 was derived […]
(§7) 1A. p53 status was obtained from http://cancer.sanger.ac.uk/cell_lines/cbrowse/all and http://p53.free.fr/Database/Cancer_ cell_lines/Leukemia_cancer. html. WT: wild type. Mut: mutant. SM: single mutation. DM: double mutation. MM: multiple mutations. Fs: Frameshift mutation. Null: protein expression undetectable.

NB-4 cells = test: alamarBlue cytotoxicity assay, 48h; format: cell-based, human; details: NB-4 (AML), RPMI + 10% FBS
Experimental: as §1, §2, §3, §4, §5, §6, §7

K562 cells = test: alamarBlue cytotoxicity assay, 48h; format: cell-based, human; details: K562 (CML), RPMI + 10% FBS
Experimental: as §1, §2, §3, §4, §5, §6, §7

CCRF-CEM cells = test: alamarBlue cytotoxicity assay, 48h; format: cell-based, human; details: CCRF-CEM (T-ALL), RPMI + 10% FBS
Experimental: as §1, §2, §3, §4, §5, §6, §7

U937 cells = test: alamarBlue cytotoxicity assay, 48h; format: cell-based, human; details: RPMI + 10% FBS
Experimental: as §1, §2, §3, §4, §5, §6, §7

RS4;11 cells = test: alamarBlue cytotoxicity assay, 48h; format: cell-based, human; details: RS4;11 (B-ALL), RPMI + 10% FBS
Experimental: as §1, §2, §3, §4, §5, §6, §7

KG-1a cells = test: alamarBlue cytotoxicity assay, 48h; format: cell-based, human; details: KG-1a (AML), RPMI + 10% FBS
Experimental: as §1, §2, §3, §4, §5, §6, §7

SEM cells = test: alamarBlue cytotoxicity assay, 48h; format: cell-based, human
Experimental: as §1, §2, §3, §4, §5, §6, §7

REH cells = test: alamarBlue cytotoxicity assay, 48h; format: cell-based, human
Experimental: as §1, §2, §3, §4, §5, §6, §7

Kasumi-1 cells = test: alamarBlue cytotoxicity assay, 48h; format: cell-based, human; details: Kasumi-1 (AML), RPMI + 10% FBS
Experimental: as §1, §2, §3, §4, §5, §6, §7

ML-2 cells = test: alamarBlue cytotoxicity assay, 48h; format: cell-based, human; details: ML-2 (AML), RPMI + 10% FBS
Experimental: as §1, §2, §3, §4, §5, §6, §7

OCI-AML3 cells = test: alamarBlue cytotoxicity assay, 48h; format: cell-based, human
Experimental: as §1, §2, §3, §4, §5, §6, §7

MOLT-16 cells = test: alamarBlue cytotoxicity assay, 48h; format: cell-based, human; details: MOLT-16 (T-ALL), RPMI + 10% FBS
Experimental: as §1, §2, §3, §4, §5, §6, §7

THP-1 cells = test: alamarBlue cytotoxicity assay, 48h; format: cell-based, human
Experimental: as §1, §2, §3, §4, §5, §6, §7

SUPB15 cells = test: alamarBlue cytotoxicity assay, 48h; format: cell-based, human
Experimental: as §1, §2, §3, §4, §5, §6, §7

MOLT-3 cells = test: alamarBlue cytotoxicity assay, 48h; format: cell-based, human; details: MOLT-3 (T-ALL), RPMI + 10% FBS
Experimental: as §1, §2, §3, §4, §5, §6, §7

Jurkat cells = test: alamarBlue cytotoxicity assay, 48h; format: cell-based, human; details: Jurkat (T-ALL), RPMI + 10% FBS
Experimental: as §1, §2, §3, §4, §5, §6, §7

NALM-6 cells = test: alamarBlue cytotoxicity assay, 48h; format: cell-based, human; details: NALM-6 (B-ALL), RPMI + 10% FBS
Experimental: as §1, §2, §3, §4, §5, §6, §7

MV-4-11 cells = test: alamarBlue cytotoxicity assay, 48h; format: cell-based, human; details: RPMI + 10% FBS
Experimental: as §1, §2, §3, §4, §5, §6, §7

RCH-ACV cells = test: alamarBlue cytotoxicity assay, 48h; format: cell-based, human; details: RCH-ACV (B-ALL), RPMI + 10% FBS
Experimental: as §1, §2, §3, §4, §5, §6, §7

HL-60 cells = test: alamarBlue cytotoxicity assay, 48h; format: cell-based, human; details: HL-60 (AML), RPMI + 10% FBS
Experimental: as §1, §2, §3, §4, §5, §6, §7

MOLM14 or KOPN8 cells = test: drug combinations, alamarBlue 48h, combination indices; details: for effect of addition on cytotoxicity of ARA, DOX, ETO, MID, LES, SOR: equipotency ratio based on IC50s, 48h
Experimental: Supplementary Figure S10: Drug combinations against MOLM14. MOLM14 cells were treated with a range of concentrations
experiment was performed three times in triplicate, and error bars represent the SEM.
Combination indices (CI) were computed for each drug combination using CompuSyn software, based on the Median Effect
Principle and the CI theorem of Chou-Talalay, wherein CI = 1 indicates additivity, CI < 1 synergism, and CI > 1 antagonism. Data are
Supplementary Figure S11: Drug combinations against KOPN8. KOPN8 cells were treated with a range of concentrations
Each experiment was performed at least three times in triplicate, and error bars represent the SEM.

Structure (SMILES): C[C@H]1[C@H](OC(=O)CCC(=O)O)O[C@@H]2O[C@@]3(C)CC[C@H]4[C@H](C)CC[C@@H]1[C@@]24OO3 [AS, artesunate]
- IC50 (Kasumi-2 cells; Homo sapiens): 6650 ± 340 nM
- IC50 (NB-4 cells; Homo sapiens): 947 ± 141 nM
- IC50 (K562 cells; Homo sapiens): 4750 ± 850 nM
- IC50 (CCRF-CEM cells; Homo sapiens): 7340 ± 1240 nM
- IC50 (U937 cells; Homo sapiens, U-937, U937 (AML)): 1060 ± 170 nM
- IC50 (RS4;11 cells; Homo sapiens): 5420 ± 1890 nM
- IC50 (KG-1a cells; Homo sapiens): 6260 ± 300 nM
- IC50 (SEM cells; Homo sapiens, SEM (B-ALL), 48h, RPMI + 10% FBS, read-out: IC50): 4080 ± 1180 nM
- IC50 (SEM cells; Homo sapiens, SEM, original medium DMEM + 10% FBS, read-out: IC50 in original medium): 18300 nM
- IC50 (REH cells; Homo sapiens, read-out: IC50 in RPMI+10% FBS, REH, Table S2): 10300 nM
- IC50 (REH cells; Homo sapiens, REH (B-ALL), 48h, RPMI + 10% FBS, read-out: IC50): 10300 ± 3000 nM
- IC50 (REH cells; Homo sapiens, REH, original medium RPMI + 20% FBS, read-out: IC50 in original medium): 15400 nM
- IC50 (Kasumi-1 cells; Homo sapiens): 1720 ± 230 nM
- IC50 (ML-2 cells; Homo sapiens): 1460 ± 210 nM
- IC50 (OCI-AML3 cells; Homo sapiens, OCI-AML-3, OCI-AML3 (AML), 48h, RPMI + 10% FBS, read-out: IC50): 1810 ± 200 nM
- IC50 (OCI-AML3 cells; Homo sapiens, OCI-AML-3, OCI-AML3, original medium RPMI + 20% FBS, read-out: IC50 in original medium): 3560 nM
- IC50 (MOLT-16 cells; Homo sapiens): 1630 ± 70 nM
- IC50 (THP-1 cells; Homo sapiens, THP-1 (AML), 48h, RPMI + 10% FBS, read-out: IC50): 2200 ± 480 nM
- IC50 (THP-1 cells; Homo sapiens, THP-1, original medium RPMI + 10% FBS + 50 μM β-mercaptoethanol, read-out: IC50 in original medium): 11100 nM
- IC50 (SUPB15 cells; Homo sapiens, SUP-B15, SUPB15 (B-ALL), 48h, RPMI + 10% FBS, read-out: IC50): 7820 ± 1220 nM
- IC50 (SUPB15 cells; Homo sapiens, SUP-B15, SUPB15, original medium RPMI + 20% FBS, read-out: IC50 in original medium): 14300 nM
- IC50 (MOLT-3 cells; Homo sapiens): 4100 ± 620 nM
- IC50 (Jurkat cells; Homo sapiens): 4330 ± 1180 nM
- IC50 (NALM-6 cells; Homo sapiens): 5190 ± 430 nM
- IC50 (MV-4-11 cells; Homo sapiens, MV4-11, MV-4-11 (AML/B-ALL)): 796 ± 96 nM
- IC50 (RCH-ACV cells; Homo sapiens): 3200 ± 540 nM
- IC50 (HL-60 cells; Homo sapiens): 3000 ± 600 nM
- interaction with SOR (MOLM14 or KOPN8 cells; combination indices): additive effects
- effect of addition on cytotoxicity of ARA, DOX, ETO, MID, LES, SOR (MOLM14 or KOPN8 cells): enhanced the cytotoxicity of all six tested drugs

Structure (SMILES): C[C@@H]1CCC2[C@@H](C)[C@@H](CC(COP(=O)(Oc3ccccc3)Oc3ccccc3)C[C@H]3O[C@@H]4O[C@@]5(C)CCC6[C@H](C)CCC([C@H]3C)[C@]64OO5)O[C@@H]3O[C@@]4(C)CCC1[C@@]23OO4 (stereo partly drawn) [ART-838, artemisinin-derived trioxane diphenylphosphate dimer 838]
- IC50 (Kasumi-2 cells): 26 ± 4 nM
- IC50 (NB-4 cells): 26 ± 7 nM
- IC50 (K562 cells): 94 ± 12 nM
- IC50 (CCRF-CEM cells): 483 ± 195 nM
- IC50 (U937 cells; U937 (AML)): 10 ± 1 nM
- IC50 (RS4;11 cells): 62 ± 23 nM
- IC50 (KG-1a cells): 547 ± 147 nM
- IC50 (SEM cells; SEM (B-ALL), 48h, RPMI + 10% FBS, read-out: IC50): 29 ± 6 nM
- -Fold Difference in IC50 between media (SEM cells; SEM, DMEM + 10% FBS vs RPMI+10% FBS): 9.2
- IC50 (SEM cells; SEM, original medium DMEM + 10% FBS, read-out: IC50 in original medium): 268 nM
- IC50 (REH cells; REH (B-ALL), 48h, RPMI + 10% FBS, read-out: IC50): 95 ± 40 nM
- -Fold Difference in IC50 between media (REH cells; REH, RPMI + 20% FBS vs RPMI+10% FBS): 1.3
- IC50 (REH cells; REH, original medium RPMI + 20% FBS, read-out: IC50 in original medium): 123 nM
- IC50 (REH cells; read-out: IC50 in RPMI+10% FBS, REH, Table S2): 95 nM
- IC50 (Kasumi-1 cells): 67 ± 23 nM
- IC50 (ML-2 cells): 21 ± 11 nM
- IC50 (OCI-AML3 cells; OCI-AML3 (AML), 48h, RPMI + 10% FBS, read-out: IC50): 168 ± 41 nM
- -Fold Difference in IC50 between media (OCI-AML3 cells; OCI-AML3, RPMI + 20% FBS vs RPMI+10% FBS): 1.7
- IC50 (OCI-AML3 cells; OCI-AML3, original medium RPMI + 20% FBS, read-out: IC50 in original medium): 287 nM
- IC50 (MOLT-16 cells): 10 ± 2 nM
- IC50 (THP-1 cells; THP-1 (AML), 48h, RPMI + 10% FBS, read-out: IC50): 38 ± 9 nM
- -Fold Difference in IC50 between media (THP-1 cells; THP-1, RPMI + 10% FBS + 50 μM β-mercaptoethanol vs RPMI+10% FBS): 2.5
- IC50 (THP-1 cells; THP-1, original medium RPMI + 10% FBS + 50 μM β-mercaptoethanol, read-out: IC50 in original medium): 95 nM
- IC50 (SUPB15 cells; SUPB15 (B-ALL), 48h, RPMI + 10% FBS, read-out: IC50): 26 ± 3 nM
- -Fold Difference in IC50 between media (SUPB15 cells; SUPB15, RPMI + 20% FBS vs RPMI+10% FBS): 3.0
- IC50 (SUPB15 cells; SUPB15, original medium RPMI + 20% FBS, read-out: IC50 in original medium): 77 nM
- IC50 (MOLT-3 cells): 97 ± 58 nM
- IC50 (Jurkat cells): 255 ± 155 nM
- IC50 (NALM-6 cells): 16 ± 5 nM
- IC50 (MV-4-11 cells; MV-4-11 (AML/B-ALL)): 25 ± 5 nM
- IC50 (RCH-ACV cells): 36 ± 12 nM
- IC50 (HL-60 cells): 107 ± 45 nM
- interaction with kinase inhibitors MID, LES, SOR (MOLM14 or KOPN8 cells; combination indices): combined synergistically with all three kinase inhibitors
- effect of addition on cytotoxicity of ARA, DOX, ETO, MID, LES, SOR (MOLM14 or KOPN8 cells): enhanced the cytotoxicity of all six tested drugs
